ChEMBL document CHEMBL1201862, “PubChem BioAssay data set” (2004)
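These data come from cells grown in 96-well plates and exposed to compound for 48 hours at five concentrations. At the GI50, growth is halved.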 Activity calls are given as the source filed them. Cut-off read from the data, not from the text of the source: active = GI50 up to about 1.1 µM and inactive = higher. Where a SMILES comes first, the peptide text is derived from it. The star is where a group is joined. Fmoc = O=C(OCC1c2ccccc2-c2ccccc21)*; OBn = c1ccc(CO*)cc1; tBu = CC(C)(C)*

What was measured:
Test in all cases: DTP human tumour cell line panel, 48 h
NCI-H522 = system: NCI-H522
CCRF-CEM = system: CCRF-CEM
BT-549 = system: BT-549
DU-145 = system: DU-145
M14 = system: M14
HOP-62 = system: HOP-62
MDA-MB-435 = system: MDA-MB-435
IGROV-1 = system: IGROV-1
786-0 = system: 786-0
MDA-N = system: MDA-N
RXF 393 = system: RXF 393
RPMI-8226 = system: RPMI-8226
OVCAR-5 = system: OVCAR-5
TK-10 = system: TK-10
UACC-257 = system: UACC-257
SW-620 = system: SW-620
SK-MEL-2 = system: SK-MEL-2
NCI-H226 = system: NCI-H226
NCI/ADR-RES = system: NCI/ADR-RES
MDA-MB-231 = system: MDA-MB-231

Measured: GI50

NS(=O)(=O)c1cc(C(=O)O)c(O)c2ccccc12
inactive: NCI-H522 > 100 µM | CCRF-CEM > 100 µM | BT-549 > 100 µM | DU-145 > 100 µM | M14 > 100 µM | HOP-62 > 100 µM | MDA-MB-435 > 100 µM | IGROV-1 > 100 µM | 786-0 > 100 µM | MDA-N > 100 µM | RXF 393 > 100 µM | RPMI-8226 > 100 µM | OVCAR-5 > 100 µM | TK-10 > 100 µM | UACC-257 > 100 µM | SW-620 > 100 µM | SK-MEL-2 > 100 µM | NCI-H226 > 100 µM | NCI/ADR-RES > 100 µM | MDA-MB-231 > 100 µM

O=C(O)CCCCn1cnc2c(S)ncnc21
inactive: NCI-H522 > 100 µM | CCRF-CEM 4.33 µM | BT-549 > 100 µM | DU-145 > 100 µM | M14 > 100 µM | HOP-62 > 100 µM | MDA-MB-435 > 100 µM | IGROV-1 > 100 µM | 786-0 > 100 µM | MDA-N > 100 µM | RXF 393 > 100 µM | RPMI-8226 > 100 µM | OVCAR-5 > 100 µM | TK-10 > 100 µM | UACC-257 > 100 µM | SW-620 > 100 µM | SK-MEL-2 > 100 µM | NCI-H226 > 100 µM | NCI/ADR-RES > 100 µM | MDA-MB-231 > 100 µM

Nc1cccc(OCc2nc(N)nc(N)c2-c2ccc(Cl)cc2)c1
inactive: NCI-H522 57.5 µM | CCRF-CEM 13.1 µM | BT-549 36.1 µM | DU-145 73.1 µM | M14 60.8 µM | HOP-62 > 100 µM | MDA-MB-435 56.4 µM | IGROV-1 37.3 µM | 786-0 53.5 µM | MDA-N 42.1 µM | RXF 393 60 µM | RPMI-8226 37.8 µM | OVCAR-5 > 100 µM | TK-10 31.5 µM | UACC-257 41.1 µM | SW-620 50.6 µM | SK-MEL-2 > 100 µM | NCI-H226 12.4 µM | NCI/ADR-RES 44 µM | MDA-MB-231 > 100 µM

CC(=O)NCCC1CN(C(=O)/C=C\I)c2ccccc21 (stereo not given)
inactive: NCI-H522 1.78 µM | CCRF-CEM 3.03 µM | BT-549 21.6 µM | DU-145 13.9 µM | M14 11.7 µM | HOP-62 11.2 µM | MDA-MB-435 14.2 µM | IGROV-1 15.1 µM | 786-0 10.6 µM | MDA-N 12.6 µM | RXF 393 7.29 µM | RPMI-8226 2.08 µM | OVCAR-5 16.6 µM | TK-10 6.17 µM | UACC-257 13.8 µM | SW-620 12.7 µM | SK-MEL-2 16 µM | NCI-H226 10.7 µM | NCI/ADR-RES 25.5 µM | MDA-MB-231 4.13 µM

N#Cc1nc(/C=C/c2ccccc2)oc1N
inactive: NCI-H522 8.2 µM | CCRF-CEM > 100 µM | BT-549 13.1 µM | DU-145 > 100 µM | M14 > 100 µM | HOP-62 > 100 µM | MDA-MB-435 > 100 µM | IGROV-1 > 100 µM | 786-0 > 100 µM | MDA-N > 100 µM | RXF 393 > 100 µM | RPMI-8226 34.5 µM | OVCAR-5 > 100 µM | TK-10 > 100 µM | UACC-257 > 100 µM | SW-620 > 100 µM | SK-MEL-2 > 100 µM | NCI-H226 > 100 µM | NCI/ADR-RES > 100 µM | MDA-MB-231 > 100 µM

Cc1ccc(S(=O)(=O)N2CC(CCN)c3ccccc32)cc1 (stereo not given)
active: MDA-N 0.883 µM
inactive: NCI-H522 5.87 µM | CCRF-CEM > 100 µM | BT-549 5.69 µM | DU-145 3.87 µM | M14 2.29 µM | HOP-62 6.78 µM | MDA-MB-435 1.53 µM | IGROV-1 3.28 µM | 786-0 3.89 µM | RXF 393 2.74 µM | RPMI-8226 6.01 µM | OVCAR-5 4.43 µM | TK-10 7.89 µM | UACC-257 4.78 µM | SW-620 4.34 µM | SK-MEL-2 4.28 µM | NCI-H226 2.45 µM | NCI/ADR-RES 5.61 µM | MDA-MB-231 4.1 µM

CCOP(=O)(OCC)/C(C#N)=C/c1cnc(C)[nH]1
inactive: NCI-H522 > 100 µM | CCRF-CEM > 100 µM | BT-549 > 100 µM | DU-145 > 100 µM | M14 > 100 µM | HOP-62 > 100 µM | MDA-MB-435 > 100 µM | IGROV-1 > 100 µM | 786-0 > 100 µM | MDA-N > 100 µM | RXF 393 > 100 µM | RPMI-8226 > 100 µM | OVCAR-5 > 100 µM | TK-10 > 100 µM | UACC-257 > 100 µM | SW-620 > 100 µM | SK-MEL-2 > 100 µM | NCI-H226 > 100 µM | NCI/ADR-RES > 100 µM | MDA-MB-231 > 100 µM

CC(C)Oc1c(-c2ccc(F)cc2)c(O)c2c3c1oc(=O)n3C=CC2C (stereo not given)
inactive: NCI-H522 12.1 µM | CCRF-CEM 11 µM | BT-549 14 µM | DU-145 13.1 µM | M14 15.1 µM | HOP-62 14.8 µM | MDA-MB-435 17.9 µM | IGROV-1 15.3 µM | 786-0 14.7 µM | MDA-N 12.4 µM | RXF 393 14 µM | RPMI-8226 6.27 µM | OVCAR-5 24.7 µM | TK-10 16.9 µM | UACC-257 13.2 µM | SW-620 14.3 µM | SK-MEL-2 17.8 µM | NCI-H226 13.9 µM | NCI/ADR-RES 13.8 µM | MDA-MB-231 14.4 µM

CC[C@@H]1CC[C@@H]2[C@H](CC[C@]3(C)[C@@H](OC(C)=O)CC[C@@H]23)[C@H]1C(=O)OC
inactive: NCI-H522 27.2 µM | CCRF-CEM 22.1 µM | BT-549 34.4 µM | DU-145 27.4 µM | M14 19.6 µM | HOP-62 24.9 µM | MDA-MB-435 20.9 µM | IGROV-1 24.8 µM | 786-0 23.4 µM | MDA-N 19.5 µM | RXF 393 24.6 µM | RPMI-8226 19.6 µM | OVCAR-5 23.1 µM | TK-10 > 100 µM | UACC-257 25.3 µM | SW-620 21.8 µM | SK-MEL-2 20.1 µM | NCI-H226 18.8 µM | NCI/ADR-RES 26.9 µM | MDA-MB-231 20.6 µM

Cc1cn(C2CC(N=[N+]=[N-])C(COP(=O)(O)OCC3OC(n4cc(F)c(=O)[nH]c4=O)CC3O)O2)c(=O)[nH]c1=O (stereo not given)
active: CCRF-CEM 0.312 µM | HOP-62 0.348 µM | 786-0 0.381 µM | RPMI-8226 0.311 µM | NCI/ADR-RES 0.57 µM
inactive: NCI-H522 > 100 µM | BT-549 > 100 µM | DU-145 4.1 µM | M14 10.9 µM | MDA-MB-435 16 µM | IGROV-1 2.88 µM | MDA-N 38.3 µM | RXF 393 > 100 µM | OVCAR-5 > 100 µM | TK-10 > 100 µM | UACC-257 96.6 µM | SW-620 4.56 µM | SK-MEL-2 > 100 µM | NCI-H226 > 100 µM | MDA-MB-231 > 100 µM

CSc1nc(=O)cnn1C
inactive: NCI-H522 > 100 µM | CCRF-CEM > 100 µM | BT-549 > 100 µM | DU-145 > 100 µM | M14 > 100 µM | HOP-62 > 100 µM | MDA-MB-435 > 100 µM | IGROV-1 > 100 µM | 786-0 > 100 µM | MDA-N > 100 µM | RXF 393 > 100 µM | RPMI-8226 > 100 µM | OVCAR-5 > 100 µM | TK-10 > 100 µM | UACC-257 > 100 µM | SW-620 > 100 µM | SK-MEL-2 > 100 µM | NCI-H226 > 100 µM | NCI/ADR-RES > 100 µM | MDA-MB-231 > 100 µM

Cc1ccc(/N=N\c2c(O)c(S(=O)(=O)O)cc3cc(S(=O)(=O)O)ccc23)c(C)c1
inactive: NCI-H522 > 100 µM | CCRF-CEM > 100 µM | BT-549 > 100 µM | DU-145 > 100 µM | M14 > 100 µM | HOP-62 > 100 µM | MDA-MB-435 > 100 µM | IGROV-1 > 100 µM | 786-0 > 100 µM | MDA-N > 100 µM | RXF 393 > 100 µM | RPMI-8226 > 100 µM | OVCAR-5 > 100 µM | TK-10 > 100 µM | UACC-257 > 100 µM | SW-620 > 100 µM | SK-MEL-2 > 100 µM | NCI-H226 > 100 µM | NCI/ADR-RES > 100 µM | MDA-MB-231 > 100 µM

CC(OC(C)(C)C)C(NC(=O)OCC1c2ccccc2-c2ccccc21)C(=O)NC(Cc1ccccc1)C(=O)OCc1ccccc1 (stereo not given) (Fmoc-Thr(tBu)-Phe-OBn; configuration not given here)
inactive: NCI-H522 > 100 µM | CCRF-CEM > 100 µM | BT-549 > 100 µM | DU-145 > 100 µM | M14 > 100 µM | HOP-62 > 93.8 µM | MDA-MB-435 > 100 µM | IGROV-1 > 100 µM | 786-0 > 100 µM | MDA-N > 100 µM | RXF 393 > 100 µM | RPMI-8226 > 71.8 µM | OVCAR-5 > 100 µM | TK-10 > 100 µM | UACC-257 > 100 µM | SW-620 > 100 µM | SK-MEL-2 > 100 µM | NCI-H226 > 100 µM | NCI/ADR-RES > 100 µM | MDA-MB-231 > 48.4 µM

Cc1cc2cc3cc(C)c(N)cc3nc2cc1N [ACRIDINE YELLOW]
inactive: BT-549 5.52 µM | M14 3.53 µM | MDA-MB-435 4.4 µM | MDA-N 1.57 µM | RXF 393 1.15 µM | UACC-257 3.85 µM | SK-MEL-2 3.88 µM | NCI/ADR-RES 2.13 µM
active: NCI-H522 0.271 µM | CCRF-CEM 0.383 µM | DU-145 0.647 µM | HOP-62 0.465 µM | IGROV-1 0.244 µM | 786-0 0.416 µM | RPMI-8226 0.217 µM | OVCAR-5 0.798 µM | TK-10 0.635 µM | SW-620 0.321 µM | NCI-H226 0.869 µM | MDA-MB-231 0.211 µM
